Measured values: US4668621A, “Detecting blood clotting factors with immobilized fibrinogen and labeled fibrinogen” (Wake Forest University, priority 1985, dated 1987)

Tests used:
thrombin = target: T1, thrombin (Homo sapiens, UniProt P00734); assay: Inhibition of thrombin in the solid-phase thrombin assay; type: biochemical; conditions: 80 min assay
T1 construct: additional factors necessary for cleavage of prothrombin to thrombin
Procedure: (§1) In the first assay, microtiter plates were coated with 150 μl per well of 50 μg/ml of fibrinogen in 10 mM Tris-acetate buffered saline, pH 7.6 (TABS) containing 10 mM EDTA overnight at 4° C. The solution was removed from the plate, and 100 μl of a 10 μg/ml solution of peroxidase-fibrinogen in 3.8 mg/ml bovine serum albumin (BSA) in TABS containing 10 mM calcium chloride was added to the well. 50 μl of thrombin diluted from 0.1 to 0.00078 NIH units/ml (30-0.25 ng/ml) was added to each well for various times from 0-160 min, after which the solution was washed from the plate. Peroxidase assay was performed using ortho-phenylenediamine as the indicator dye, with 11 min of incubation.
In the next assay, benzamidine and D-phenylalanyl-L-prolyl-L-arginine chloromethyl ketone (PPACK) were added to thrombin at the start of the assay. […] The percent inhibition can be calculated from the increased thrombin concentration required to obtain equivalent activity, as
% inhibition=100 * (1-To/Ti)
where To is the thrombin concentration yielding an O.D.=1 in the absence of inhibitor, and Ti is the thrombin concentration yielding an O.D.=1 in the presence of a given inhibitor concentration.

fibrinogen = assay: Thrombin assay: peroxidase-fibrinogen bound to fibrinogen-coated microtiter plate; type: biochemical, human; conditions: for [Thrombin] for O.D. = 1: unit not printed here (preceding table: NIH units/ml)
Procedure: This was prepared by the method of Nakane and Kawaoi (J. Histochem. Cytochem (1974) 22:1084) using 40 mg of horseradish peroxidase and 300 mg of human fibrinogen. The molar ratio of peroxidase to fibrinogen in the final product was 0.39. This was diluted with unlabeled fibrinogen to a concentration of 0.72 mg/ml of fibrinogen with a molar ratio of 0.12 moles of peroxidase per mole of fibrinogen, stored in 50% glycerol at -20° C.
as §1, with “incubation. Optical density was measured at 490 nm using a microtiter plate reader, with the following results:” for “incubation.”
Not only the endpoint (O.D.>2), but also the partial reaction ([…])can be used as a measure of thrombin activity. The penultimate value prior to the endpoint, or an approximate extrapolation to the concentration of thrombin yielding an O.D. value of 1 can be used to standardize this assay. For the above experiment, this value is reached at thrombin concentrations of: […]

## N=C(N)c1ccccc1 [Benzamidine, benzamidine]
thrombin; [Benzamidine] 0.5 mM
  % Inhibition: 8%
thrombin; [Benzamidine] 1 mM
  % Inhibition: 41%
thrombin; [Benzamidine] 2 mM
  % Inhibition: 55%
thrombin; [Benzamidine] 5 mM
  % Inhibition: 75%
thrombin; [Benzamidine] 10 mM
  % Inhibition: 84%
thrombin; [Benzamidine] 20 mM
  % Inhibition: 97%

## N=C(N)NCCC[C@H](NC(=O)[C@@H]1CCCN1C(=O)[C@H](N)Cc1ccccc1)C(=O)CCl [PPACK, D-phenylalanyl-L-prolyl-L-arginine chloromethyl ketone]
thrombin; [PPACK] .005 nM
  % Inhibition: 11%
thrombin; [PPACK] .01 nM
  % Inhibition: 19%
thrombin; [PPACK] .02 nM
  % Inhibition: 43%
thrombin; [PPACK] .05 nM
  % Inhibition: 62%
thrombin; [PPACK] .1 nM
  % Inhibition: 79%
thrombin; [PPACK] .2 nM
  % Inhibition: 83%
thrombin; [PPACK] .5 nM
  % Inhibition: 95%

## Thrombin
fibrinogen; incubation time 10 min
  [Thrombin] for O.D. = 1: > 0.03
fibrinogen; incubation time 20 min
  [Thrombin] for O.D. = 1: 0.02
fibrinogen; incubation time 40 min
  [Thrombin] for O.D. = 1: 0.005
fibrinogen; incubation time 80 min
  [Thrombin] for O.D. = 1: 0.002
fibrinogen; incubation time 160 min
  [Thrombin] for O.D. = 1: 0.0008
fibrinogen; thrombin .00026 NIH units/ml, incubation 0 min
  Optical density at 490 nm: 0.20
fibrinogen; thrombin .00026 NIH units/ml, incubation 10 min
  Optical density at 490 nm: 0.24
fibrinogen; thrombin .00026 NIH units/ml, incubation 20 min
  Optical density at 490 nm: 0.19
fibrinogen; thrombin .00026 NIH units/ml, incubation 40 min
  Optical density at 490 nm: 0.25
fibrinogen; thrombin .00026 NIH units/ml, incubation 80 min
  Optical density at 490 nm: 0.32
fibrinogen; thrombin .00026 NIH units/ml, incubation 160 min
  Optical density at 490 nm: 0.24
fibrinogen; thrombin .0005 NIH units/ml, incubation 0 min
  Optical density at 490 nm: 0.21
fibrinogen; thrombin .0005 NIH units/ml, incubation 10 min
  Optical density at 490 nm: 0.21
fibrinogen; thrombin .0005 NIH units/ml, incubation 20 min
  Optical density at 490 nm: 0.16
fibrinogen; thrombin .0005 NIH units/ml, incubation 40 min
  Optical density at 490 nm: 0.14
fibrinogen; thrombin .0005 NIH units/ml, incubation 80 min
  Optical density at 490 nm: 0.18
fibrinogen; thrombin .0005 NIH units/ml, incubation 160 min
  Optical density at 490 nm: 0.60
fibrinogen; thrombin .0010 NIH units/ml, incubation 0 min
  Optical density at 490 nm: 0.22
fibrinogen; thrombin .0010 NIH units/ml, incubation 10 min
  Optical density at 490 nm: 0.15
fibrinogen; thrombin .0010 NIH units/ml, incubation 20 min
  Optical density at 490 nm: 0.18
fibrinogen; thrombin .0010 NIH units/ml, incubation 40 min
  Optical density at 490 nm: 0.23
fibrinogen; thrombin .0010 NIH units/ml, incubation 80 min
  Optical density at 490 nm: 0.37
fibrinogen; thrombin .0010 NIH units/ml, incubation 160 min
  Optical density at 490 nm: 1.55
fibrinogen; thrombin .0021 NIH units/ml, incubation 0 min
  Optical density at 490 nm: 0.25
fibrinogen; thrombin .0021 NIH units/ml, incubation 10 min
  Optical density at 490 nm: 0.18
fibrinogen; thrombin .0021 NIH units/ml, incubation 20 min
  Optical density at 490 nm: 0.18
fibrinogen; thrombin .0021 NIH units/ml, incubation 40 min
  Optical density at 490 nm: 0.18
fibrinogen; thrombin .0021 NIH units/ml, incubation 80 min
  Optical density at 490 nm: 1.02
fibrinogen; thrombin .0021 NIH units/ml, incubation 160 min
  Optical density at 490 nm: > 2
fibrinogen; thrombin .0042 NIH units/ml, incubation 0 min
  Optical density at 490 nm: 0.23
fibrinogen; thrombin .0042 NIH units/ml, incubation 10 min
  Optical density at 490 nm: 0.22
fibrinogen; thrombin .0042 NIH units/ml, incubation 20 min
  Optical density at 490 nm: 0.26
fibrinogen; thrombin .0042 NIH units/ml, incubation 40 min
  Optical density at 490 nm: 0.87
fibrinogen; thrombin .0042 NIH units/ml, incubation 80 min
  Optical density at 490 nm: > 2
fibrinogen; thrombin .0042 NIH units/ml, incubation 160 min
  Optical density at 490 nm: > 2
fibrinogen; thrombin .0083 NIH units/ml, incubation 0 min
  Optical density at 490 nm: 0.30
fibrinogen; thrombin .0083 NIH units/ml, incubation 10 min
  Optical density at 490 nm: 0.42
fibrinogen; thrombin .0083 NIH units/ml, incubation 20 min
  Optical density at 490 nm: 0.40
fibrinogen; thrombin .0083 NIH units/ml, incubation 40 min
  Optical density at 490 nm: 1.67
fibrinogen; thrombin .0083 NIH units/ml, incubation 80 min
  Optical density at 490 nm: > 2
fibrinogen; thrombin .0083 NIH units/ml, incubation 160 min
  Optical density at 490 nm: > 2
fibrinogen; thrombin .017 NIH units/ml, incubation 0 min
  Optical density at 490 nm: 0.31
fibrinogen; thrombin .017 NIH units/ml, incubation 10 min
  Optical density at 490 nm: 0.30
fibrinogen; thrombin .017 NIH units/ml, incubation 20 min
  Optical density at 490 nm: 0.91
fibrinogen; thrombin .017 NIH units/ml, incubation 40 min
  Optical density at 490 nm: > 2
fibrinogen; thrombin .017 NIH units/ml, incubation 80 min
  Optical density at 490 nm: > 2
fibrinogen; thrombin .017 NIH units/ml, incubation 160 min
  Optical density at 490 nm: > 2
fibrinogen; thrombin .033 NIH units/ml, incubation 0 min
  Optical density at 490 nm: 0.41
fibrinogen; thrombin .033 NIH units/ml, incubation 10 min
  Optical density at 490 nm: 0.52
fibrinogen; thrombin .033 NIH units/ml, incubation 20 min
  Optical density at 490 nm: 1.24
fibrinogen; thrombin .033 NIH units/ml, incubation 40 min
  Optical density at 490 nm: > 2
fibrinogen; thrombin .033 NIH units/ml, incubation 80 min
  Optical density at 490 nm: > 2
fibrinogen; thrombin .033 NIH units/ml, incubation 160 min
  Optical density at 490 nm: > 2
